Here are results for two compounds from patent publication US11072596B2, “Poly(ADP-ribose) polymerase inhibitor, preparation method and use” (SELECTION BIOSCIENCE LLC, priority 2017, dated 2021).

In one data set the target is T1, CYP2D6 (Homo sapiens, UniProt P10635).
T1 construct: from tissue; host or cells: human liver microsomes (HLM)
Kind of data set: Inhibition of human liver microsomal CYP450 enzymes, CYP2D6. The class given is in vitro ADME. The conditions noted are these: human liver microsomes, substrate Bufuralol 10 μM; Reference = quinidine; read-out: IC50 2D6. The procedure: (§1) The inhibitory effects of the compound of the present disclosure on the CYP450 enzymes of six human subtypes were determined by the following experimental method:
(§2) Reference compounds of each subtype: CYP1A2: α-naphthoflavone; CYP2C9: sulfaphenazole; CYP2C19: omeprazole; CYP3A4: ketoconazole; CYP2D6: quinidine.
(§3) Substrate concentration: CYP1A2: Phenacetin at 30 μM; CYP2C9: Diclofenac at 10 μM; CYP2C19: S-Mephenytoin at 35 μM; CYP3A4: Midazolam at 5 μM and Testosterone at 80 μM; CYP2D6: Bufuralol at 10 μM.
(§4) 6. 0.2 mg/mL of HLM was added to the test wells, 400 μL per well, and then the gradient diluted 400× test compound was added to the corresponding wells.
(§5) 7. 0.2 mg/mL of HLM was added to the test wells, 200 μL per well, and then the gradient-diluted reference inhibitor was added to the corresponding wells. Steps 6 and 7 needed to be performed on ice.
(§6) 8.1. 30 μL of test compound and reference compound were mixed in 0.2 mg/mL of HLM solution (see steps 6 and 7).
(§7) 8.2. 15 μL of 4× substrate solution (see step 4) was added.
(§8) 10. Preheated 8 mM of NADPH solution was added to the 96-well test plate (see step 3) to initiate the reaction, 15 μL per well.
(§9) 11. The test plate was incubated at 37° C.: 3A4 for 5 minutes, each of 1A2, 2C9 and 2D6 for 10 minutes, and 2C19 for 45 minutes.
(§10) 12. ACN containing internal reference was added to stop the reaction, 120 μL per well.
14. […]

The target of another data set is T2, CYP2C9 (Homo sapiens, UniProt P11712).
T2 construct: from tissue; host or cells: human liver microsomes (HLM)
T2 sequence (P11712 whole entry): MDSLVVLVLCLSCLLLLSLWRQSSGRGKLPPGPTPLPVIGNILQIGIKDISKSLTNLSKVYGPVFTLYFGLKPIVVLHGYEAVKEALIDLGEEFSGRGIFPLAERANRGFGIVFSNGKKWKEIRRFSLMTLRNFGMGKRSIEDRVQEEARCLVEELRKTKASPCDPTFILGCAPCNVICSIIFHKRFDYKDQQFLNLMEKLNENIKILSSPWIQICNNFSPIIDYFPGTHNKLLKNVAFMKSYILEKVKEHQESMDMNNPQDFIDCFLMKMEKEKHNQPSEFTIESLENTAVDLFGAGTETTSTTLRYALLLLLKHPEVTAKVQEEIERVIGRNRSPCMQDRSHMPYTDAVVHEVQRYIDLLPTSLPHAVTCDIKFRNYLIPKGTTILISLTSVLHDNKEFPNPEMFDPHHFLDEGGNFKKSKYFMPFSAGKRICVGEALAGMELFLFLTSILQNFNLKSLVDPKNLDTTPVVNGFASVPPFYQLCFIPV
Kind of data set: Inhibition of human liver microsomal CYP450 enzymes, CYP2C9. The class given is in vitro ADME. The conditions noted are these: human liver microsomes, substrate Diclofenac 10 μM; Reference = sulfaphenazole; read-out: IC50 2C9. The procedure: as §1, §2, §3, §4, §5, §6, §7, §8, §9, §10
14. […]
Background: Microsomes from liver hold many membrane-bound enzymes, among them those of drug oxidation.

Data set [1] is described as follows: Liver microsomal stability in vitro, human. The class given is in vitro ADME. The conditions noted are these: for half-life at 1 μM: pH 7.4, human liver microsomes 0.5 mg protein/mL, 1 μM test compound, 37° C., read-out: Human T1/2. The procedure:
(§11) Evaluation of in vitro liver microsomal stability of the compound of the present disclosure was tested by the following method:
(§12) Buffer: 100 mM potassium phosphate buffer, pH 7.4; […] MgCl2.
(§13) Liver microsomes: human liver microsomes, Corning Cat No. 452117; Rat liver microsomes, Xenotech Cat No. R1000; Mouse liver microsomes, Xenotech Cat No. M1000; Dog liver microsomes, Xenotech Cat No. D1000; Liver microsomes of cynomolgus monkey, Corning Cat No. 452413, the final concentration was 0.5 mg protein/mL.
(§14) 1. Intermediate solution: 5 μL of compound or control in stock solution (10 mM) was diluted with 495 μL of methanol (concentration: 100 μM, 99% MeOH).
(§15) 2. Operating solution: the intermediate solution was diluted […] with 450 μL 100 mM potassium phosphate buffer (concentration: 10 μM, 9.9% MeOH).
(§16) 1. 10 μL of compound or control solution per well was added to all plates (T0, T5, T10, T20, T30, T60, NCF60) except matrix blank.
(§17) 2. Microsome solution was distributed to 96-well plates according to platemap for standby, 680 μL per well, and the mixture of microsome solution and the compound was incubated at 37° C. for about 10 minutes.
(§18) 4. After preheating, NADPH regeneration system was distributed to 96-well plate, 90 μL per well, for standby according to plate map, which was added to each plate to start the reaction, 10 μL per well. The final concentration of each component in the incubation medium includes: 0.5 mg protein/mL microsome, 1 μM test compound, […], 0.99% methanol and 0.01% DMSO.
(§19) 6. The above-prepared stop solution (4° C. cooling) was added to stop the reaction, 300 μL per well.
(§20) 9. During centrifugation, eight new 96-well plates were loaded with 300 μL of HPLC water, and then 100 μL of supernatant was transferred for mixing, followed by LC/MS/MS detection.
(§21) 10. Data analysis: The peak area of the corresponding compound and internal standard was detected by LC-MS/MS, and the T1/2 of the compound was calculated by the following formula: […]

Another data set in a line: in vivo. The procedure:
SD rats were used as test animals, and the drug concentrations in plasma at different times after intravenous and intragastric administration of the compounds of examples were determined by LC/MS/MS method(s) to study the pharmacokinetics of the compound in the present disclosure in rats
Healthy adult male SD (Sprague-Dawley) rats, 3 animals per test compound, 6-9 weeks old, weighing 250±50 g, were purchased from Shanghai SLAC Laboratory Animal Co., Ltd.
The appropriate amount of sample was weighed out, 0.5% Methocel/2% tween 80 was added to the final volume, and 2 mg/mL was prepared for intragastric administration.
Each 3 male SD rats of each test compound were taken by intragastric administration at a dosage of 10 mg/kg after fasting overnight.
Blood samples of each animal were collected at different time points 0.083-24 h from jugular vein puncture after administration, K2-EDTA anticoagulation, centrifugation, and blood plasma were collected, frozen at −70° C. until LC/MS/MS analysis.

A short description of data set [2]: Liver microsomal stability in vitro, cynomolgus monkey. Type of data set: in vitro ADME. The conditions noted are these: for half-life at 1 μM: pH 7.4, cynomolgus monkey liver microsomes 0.5 mg protein/mL, 1 μM test compound, 37° C., read-out: Cynomolgus monkey T1/2. The procedure: as §11, §12, §13, §14, §15, §16, §17, §18, §19, §20, §21
The mark [3] stands for this setting: male, Sprague-Dawley, rat, in vivo, po, 10 mg/kg.
Where [4] appears, read: SD rats, table head: Dose PO (10 mg/kg).
Where [5] appears, read: male, Sprague-Dawley, rat, plasma, po, 10 mg/kg, SD rats, PO 10 mg/kg.

T1 sequence (P10635 whole entry): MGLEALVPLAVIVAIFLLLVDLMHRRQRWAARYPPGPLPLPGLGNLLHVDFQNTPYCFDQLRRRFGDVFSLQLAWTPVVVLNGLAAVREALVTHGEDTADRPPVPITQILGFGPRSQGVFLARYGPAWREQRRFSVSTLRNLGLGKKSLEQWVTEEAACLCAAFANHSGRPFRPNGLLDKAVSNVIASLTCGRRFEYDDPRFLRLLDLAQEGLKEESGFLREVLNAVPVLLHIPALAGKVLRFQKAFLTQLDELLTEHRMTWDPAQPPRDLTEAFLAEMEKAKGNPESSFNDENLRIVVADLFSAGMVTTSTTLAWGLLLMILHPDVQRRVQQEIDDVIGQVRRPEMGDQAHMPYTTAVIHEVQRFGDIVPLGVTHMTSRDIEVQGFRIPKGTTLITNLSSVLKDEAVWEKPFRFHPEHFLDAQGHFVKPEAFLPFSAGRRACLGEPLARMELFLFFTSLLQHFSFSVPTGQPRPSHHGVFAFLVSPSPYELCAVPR

The term IC50 denotes the concentration that gives 50% inhibition. Usually AUC stands for the area under the concentration-time curve, a measure of exposure. By MRT is commonly meant a mean duration of stay, worked out from the concentration-time curve. As to `NC(=O)c1cccc2cn(-c3ccc([C@]4(F)CCCNC4)cc3)nc12` (single isomer, unassigned) [Example 23, (R or S)-2-(4-(3-fluoropiperidin-3-yl)phenyl)-2H-indazole-7-carboxamide], the IC50 on CYP2D6 is greater than 10 µM. For the same compound, the 50% inhibitory concentration (IC50) on CYP2C9 was greater than 10 µM. For the same compound, the “metabolic stability in human liver microsomes, in words” value in data set [1] (human liver microsomes) is “excellent metabolic stability”. Besides, the half-life at 1 μM in data set [1] is greater than 2.42 h. In the data set “in vivo” (setting [3]), this compound showed an F of 49.7%, a T1/2 of 16.0 h, an exposure (AUC) of 3060 ng·h/mL and a mean residence time (MRT) of 7.12 h. Also, in data set [2] (cynomolgus monkey liver microsomes), the “metabolic stability in cynomolgus monkey liver microsomes, in words” value is “excellent metabolic stability”. Moreover, the half-life at 1 μM in data set [2] is 1.03 h.

As a reminder, the Cmax is the maximum level reached in the sampled fluid or tissue. For `NC(=O)c1cccc2cn(-c3ccc([C@@H]4CCCNC4)cc3)nc12` [Niraparib, reference compound], the IC50 on CYP2D6 was greater than 10 µM. The IC50 at CYP2C9 is greater than 10 µM. Besides, the half-life at 1 μM in data set [1] is greater than 2.42 h. For the same compound, in “in vivo” (SD rats, PO 10 mg/kg), the F is recorded as 65.0%. For the same compound, in “in vivo” (setting [4]), the CL was 28.7 mL/min/kg and the Vdss is on record as 8.18 L/kg. In “in vivo” (setting [5]), the AUC stood at 4540 ng·h/mL and the MRT is 8.59 h. The compound further yielded a Cmax in the data set “in vivo” (male, Sprague-Dawley, rat, plasma, po, 10 mg/kg, Cmax, SD rats, PO 10 mg/kg) of 509 ng/mL. The compound also gave a half-life in “in vivo” (male, Sprague-Dawley, rat, plasma, po, 10 mg/kg, T1/2, SD rats, PO 10 mg/kg) of 3.4 h. Further, the half-life at 1 μM in data set [2] turned out to be 0.967 h.
